Results as given in publication PMC3038857, “Using Nuclear Receptor Activity to Stratify Hepatocarcinogens” (PLoS ONE, 2011).
Read-outs that look alike come from different tables or passages of the source.

Legend:
Rat Liver [1] = conditions: ref ToxRefDB, cited from earlier work
Mouse Liver [2] = conditions: chronic study, mouse liver; ref ToxRefDB; cited from earlier work
Mouse Liver [3] = conditions: chronic study, mouse liver; ref ToxRefDB; cited from earlier work; remark: listed apart in the source
[4] = target: T1, PPARG (peroxisome proliferator-activated receptor gamma) (Homo sapiens, UniProt P37231); test: ATG_PPARg_TRANS: Factorial reporter gene assay (HepG2); type: cell-based
T1 construct: expressed in transfected cells; host or cells: HepG2
T1 sequence (P37231 1-505): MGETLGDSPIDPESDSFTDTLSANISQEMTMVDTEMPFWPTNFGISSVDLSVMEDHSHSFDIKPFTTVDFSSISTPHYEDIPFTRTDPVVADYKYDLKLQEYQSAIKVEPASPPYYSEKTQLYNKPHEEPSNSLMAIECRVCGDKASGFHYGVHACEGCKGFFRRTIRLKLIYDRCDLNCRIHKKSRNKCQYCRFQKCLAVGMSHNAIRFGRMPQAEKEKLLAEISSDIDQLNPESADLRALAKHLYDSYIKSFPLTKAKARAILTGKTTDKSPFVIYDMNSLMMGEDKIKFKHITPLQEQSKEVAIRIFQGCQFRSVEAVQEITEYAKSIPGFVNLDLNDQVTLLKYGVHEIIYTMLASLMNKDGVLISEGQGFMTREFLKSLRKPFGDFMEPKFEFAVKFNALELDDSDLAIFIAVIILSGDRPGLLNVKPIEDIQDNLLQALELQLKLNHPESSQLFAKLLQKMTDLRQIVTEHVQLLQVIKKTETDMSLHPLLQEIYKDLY
Procedure, shortened: (§1)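 Mammalian one-hybrid trans reporters (25 MRTUs) measured ERRg, FXR and PPARg; PXRE used cis reporters from a 48-site MRTU library. Both were run in HepG2. Dosing: seven concentrations, MTC as the highest, three-fold dilution series.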

CYP3A4 = test: CLZD_CYP3A4: Change in expression of CYP3A4 (primary human hepatocytes); type: cell-based; conditions: 24 hr
Procedure, shortened: (§2)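 Read-out: mRNA change by multiplexed quantitative nuclease protection assay. Primary human hepatocytes; 5 concentrations, 0.004-40 µM; exposures 6, 24, 48 hr.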

PXR Human (NR1I2) = target: T2, PXR Human (NR1I2) (Homo sapiens, UniProt O75469); test: NCGC_PXR_Agonist_human: GAL4 BLAM Reporter gene assay: PXR Human; type: cell-based; conditions: agonist mode
T2 sequence (O75469 146-434 limits assumed): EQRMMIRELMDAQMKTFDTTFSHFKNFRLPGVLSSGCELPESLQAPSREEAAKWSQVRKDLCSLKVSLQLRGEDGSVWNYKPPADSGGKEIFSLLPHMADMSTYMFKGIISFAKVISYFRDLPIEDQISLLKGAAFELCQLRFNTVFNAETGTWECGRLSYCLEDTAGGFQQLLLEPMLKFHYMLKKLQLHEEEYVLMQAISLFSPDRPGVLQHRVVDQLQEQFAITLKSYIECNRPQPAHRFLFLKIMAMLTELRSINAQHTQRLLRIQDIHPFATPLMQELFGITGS
Protocol: These assays measure binding constants and enzyme inhibition values for nuclear receptors. The targets include [drawing 67] , [drawing 68] , [drawing 69] , [drawing 70] , [drawing 71] , [drawing 72] , [drawing 73] , [drawing 74] , [drawing 75] and [drawing 76] . Each of the nuclear receptor targets was measured in agonist mode. Assays were run at the NIH Chemical Genomics Center (Rockville, MD).
Cell-based HTS Assays: These assays measuring binding constants and enzyme inhibition values for nuclear receptors. The targets include AR, ER, FXR, LXR, PPARα, PPARδ, PPARγ, RXRα, RXRβ and PXR. Each of the nuclear receptor targets was measured in both agonist and antagonist mode, but the antagonist data is still undergoing analysis due to possible interference between cytotoxicity and assay activity, so antagonist mode data were not used in the present analysis. Assays were run at the NIH Chemical Genomics Center (Rockville, MD) as part of the Tox21 collaboration. […] The R^2 was required to be ≥0.5. Values where only the highest concentration exceeded 50% activity were excluded to eliminate weak or false positives. Detailed description of the methods, data and analysis methods for this dataset will be presented in a separate publication.

Rat Liver [5] = conditions: ref ToxRefDB, cited from earlier work; remark: listed apart in the source
Mouse Liver [6] = conditions: chronic study, mouse liver; ref ToxRefDB; cited from earlier work; remark: listed apart in the source
CYP2B6 = test: CLZD_CYP2B6: Change in expression of CYP2B6 (primary human hepatocytes); type: cell-based; conditions: 24 hr
Procedure, shortened: as §2

Rat Liver [7] = conditions: ref ToxRefDB, cited from earlier work; remark: listed apart in the source
PXR (NR1I2) [8] = target: T3, PXR (NR1I2) (Homo sapiens, UniProt O75469); test: ATG_PXR_TRANS: Factorial reporter gene assay (HepG2); type: cell-based; set-up: endogenous in cells; host or cells: HepG2
T3 sequence (O75469 1-434): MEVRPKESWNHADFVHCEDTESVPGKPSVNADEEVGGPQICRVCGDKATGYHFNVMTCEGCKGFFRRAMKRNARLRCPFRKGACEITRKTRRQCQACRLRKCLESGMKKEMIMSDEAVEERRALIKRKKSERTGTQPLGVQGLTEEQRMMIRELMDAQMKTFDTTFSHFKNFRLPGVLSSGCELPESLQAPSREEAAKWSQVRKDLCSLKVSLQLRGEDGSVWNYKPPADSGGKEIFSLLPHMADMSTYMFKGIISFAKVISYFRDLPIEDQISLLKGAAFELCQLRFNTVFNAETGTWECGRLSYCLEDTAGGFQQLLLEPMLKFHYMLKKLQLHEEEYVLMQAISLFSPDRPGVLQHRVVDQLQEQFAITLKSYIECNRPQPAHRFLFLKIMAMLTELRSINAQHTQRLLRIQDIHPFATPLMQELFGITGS
Procedure, shortened: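 HepG2 cells transfected with multiplexed reporter libraries: cis-acting binding-site reporters (CIS) and a one-hybrid nuclear-receptor trans system (TRANS). Chemicals tested at seven concentrations, starting at the maximum tolerated concentration with three-fold serial dilutions.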

PXR (NR1I2) [9] = target: T3, PXR (NR1I2); test: ATG_PXRE_CIS: Factorial reporter gene assay (HepG2); type: cell-based; set-up: endogenous in cells; host or cells: HepG2
Procedure, shortened: as §1

[10] = target: T4, AHR (aryl hydrocarbon receptor) (Homo sapiens, UniProt P35869); test: ATG_Ahr_CIS: Factorial reporter gene assay (multiplexed transcription reporter, HepG2); type: cell-based; conditions: HepG2
T4 construct: endogenous in cells; host or cells: HepG2
T4 sequence (P35869 11-848): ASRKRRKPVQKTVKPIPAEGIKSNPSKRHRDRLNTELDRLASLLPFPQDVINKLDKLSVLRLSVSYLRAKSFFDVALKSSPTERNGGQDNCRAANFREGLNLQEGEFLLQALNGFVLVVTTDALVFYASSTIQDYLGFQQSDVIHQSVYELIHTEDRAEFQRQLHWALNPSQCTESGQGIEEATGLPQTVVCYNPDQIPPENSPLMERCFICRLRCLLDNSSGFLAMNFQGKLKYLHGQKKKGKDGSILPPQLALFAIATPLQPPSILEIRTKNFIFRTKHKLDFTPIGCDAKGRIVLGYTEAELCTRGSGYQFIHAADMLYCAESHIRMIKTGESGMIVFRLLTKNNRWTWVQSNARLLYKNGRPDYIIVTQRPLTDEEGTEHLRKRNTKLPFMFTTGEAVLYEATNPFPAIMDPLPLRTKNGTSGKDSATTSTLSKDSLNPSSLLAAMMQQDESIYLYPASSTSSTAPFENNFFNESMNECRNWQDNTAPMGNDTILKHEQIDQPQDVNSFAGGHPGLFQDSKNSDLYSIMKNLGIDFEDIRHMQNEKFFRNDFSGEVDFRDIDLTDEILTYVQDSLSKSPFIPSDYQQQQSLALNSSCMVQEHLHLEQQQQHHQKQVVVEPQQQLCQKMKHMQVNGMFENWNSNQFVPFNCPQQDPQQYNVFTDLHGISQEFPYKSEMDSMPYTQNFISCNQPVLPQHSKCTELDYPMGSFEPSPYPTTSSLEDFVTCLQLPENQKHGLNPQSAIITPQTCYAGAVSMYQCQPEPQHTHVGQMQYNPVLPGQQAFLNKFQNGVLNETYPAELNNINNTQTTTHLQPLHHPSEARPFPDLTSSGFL
Protocol: (§3) A multiple reporter transcription unit (MRTU) library consisting of 48 transcription factor binding sites was transfected into the HepG2 human liver hepatoma cell line. In addition to the cis-acting reporter genes (CIS), a modification of the approach was used to generate a trans-system (TRANS) with a mammalian one-hybrid assay consisting of an additional 25 MRTU library reporting the activity of nuclear receptor super-family members. […] These assays were performed by Attagene Inc. (Morrisville NC) under contract to EPA.
(§4) In addition to the cis-acting reporter genes (CIS), a modification of the approach was used to generate a trans-system (TRANS) with a mammalian one-hybrid assay consisting of an additional 25 MRTU library reporting the activity of nuclear receptor super-family members. […] Chemicals were then tested in the CIS and TRANS assays at seven concentrations starting at the MTC and followed by three-fold serial dilutions. These assays were performed by Attagene Inc. (Morrisville NC) under contract to EPA. Detailed description of the methods, data and analysis methods for this dataset will be presented in a separate publication.

PXR (NR1I2) [11] = target: T3, PXR (NR1I2); test: NVS_NR_hPXR: Human PXR Fluormone PXR (SXR) green (cell-free HTS); type: binding
Source text: These are a collection of biochemical assays measuring binding constants and enzyme inhibition values. Chemicals were initially screened at a single concentration in duplicate wells at a concentration of 10 [drawing 63] M for cytochrome P-450 assays and 25 [drawing 64] M for all others. […] These assays were run by Caliper Life Sciences (Hanover, MD) under contract to EPA. Short assay descriptions are available at: http://www.caliperls.com/products/contract-research/in-vitro/.
Cell-free HTS Assays: A collection of biochemical assays measuring binding constants and enzyme inhibition values. […] These assays were run by Caliper Life Sciences (Hanover, MD) under contract to EPA. Short assay descriptions are available at http://www.caliperls.com/products/contract-research/in-vitro/. Values for all endpoints were imported into GeneData Screener (Basel, Switzerland) and normalised to solvent controls from the same plate as the tested compounds and expressed as percent of neutral control. Concentration-response curves were fit in GeneData Screener (Basel, Switzerland) Condeseo module using the Hill equation and AC50 values were determined. […] Detailed description of the methods, data and analysis methods for this dataset are described in a separate publication.

[12] = target: T5, ESR1 (estrogen receptor 1) (Homo sapiens, UniProt P03372); test: ATG_ERa_TRANS: Factorial reporter gene assay (HepG2); type: cell-based; conditions: HepG2 reporter
T5 construct: expressed in transfected cells; host or cells: HepG2
T5 sequence (P03372 whole entry): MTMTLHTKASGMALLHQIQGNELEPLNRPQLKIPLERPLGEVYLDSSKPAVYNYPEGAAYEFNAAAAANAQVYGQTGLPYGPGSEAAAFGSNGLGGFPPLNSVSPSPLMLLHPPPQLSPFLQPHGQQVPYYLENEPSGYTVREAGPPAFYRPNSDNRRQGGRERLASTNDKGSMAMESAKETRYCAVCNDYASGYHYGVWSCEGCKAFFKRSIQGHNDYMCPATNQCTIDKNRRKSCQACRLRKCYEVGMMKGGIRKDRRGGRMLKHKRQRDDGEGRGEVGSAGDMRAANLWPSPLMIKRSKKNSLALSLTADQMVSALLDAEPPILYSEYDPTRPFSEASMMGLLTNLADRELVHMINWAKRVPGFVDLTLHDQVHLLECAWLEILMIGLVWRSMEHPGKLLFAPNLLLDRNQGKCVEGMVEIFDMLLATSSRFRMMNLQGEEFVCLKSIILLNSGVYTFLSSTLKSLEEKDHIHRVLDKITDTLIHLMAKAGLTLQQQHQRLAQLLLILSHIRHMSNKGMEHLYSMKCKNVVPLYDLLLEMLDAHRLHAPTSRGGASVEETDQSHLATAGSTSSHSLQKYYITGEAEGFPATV
Protocol: as §3, §4

Row | Structure (SMILES) | CHR_Rat_Liver_2_PreneoplasticLesion (Rat Liver [1]; chronic study, rat liver) | CHR_Mouse_Liver_3_NeoplasticLesion (Mouse Liver [2]) | CHR_Mouse_Liver_2_PreneoplasticLesion (Mouse Liver [3]) | CLZD_CYP3A4_24 (CYP3A4) | NCGC_PXR_Agonist_human (PXR Human (NR1I2)) | CHR_Rat_Liver_1_AnyLesion (Rat Liver [5]; chronic study, rat liver) | CHR_Mouse_Liver_1_AnyLesion (Mouse Liver [6]) | CLZD_CYP2B6_24 (CYP2B6) | CHR_Rat_Liver_3_NeoplasticLesion (Rat Liver [7]; chronic study, rat liver) | ATG_PXRE_CIS (PXR (NR1I2) [9]; HepG2 reporter) | ATG_Ahr_CIS [10] | NVS_NR_hPXR (PXR (NR1I2) [11]) | further results
1 | CCOC(=O)COc1cc(-c2nn(C)c(OC(F)F)c2Cl)c(F)cc1Cl [r271] | 6 | 6 | 6 | 5.138 | 4.477 | 6 | 6 | 4.918 | 0 | 4.26 | – | – | ATG_PPARg_TRANS ([4]; HepG2 reporter): 4.328; ATG_PXR_TRANS (PXR (NR1I2) [8]; HepG2 reporter): 4.538
2 | CCCCOC(=O)c1ccccc1C(=O)O [row 215] | – | – | – | – | – | – | – | – | – | – | 4.119 | 4.801 | –
3 | Cc1c(F)c(F)c(COC(=O)C2C(/C=C(\Cl)C(F)(F)F)C2(C)C)c(F)c1F (stereo not drawn) [r294] | 0 | 6 | 6 | – | – | 0 | 6 | – | 0 | 4.886 | – | – | ATG_ERa_TRANS [12]: 4.31
4 | CCC(=O)C1C(=O)CC(C(=O)[O-])CC1=O.CCC(=O)C1C(=O)CC(C(=O)[O-])CC1=O.[Ca+2] (stereo not drawn) [r254] | – | – | – | – | – | – | – | – | – | – | 4.215 | – | CHR_Rat_Liver_2_PreneoplasticLesion (Rat Liver [1]; rat, chronic study): 0; ATG_PPARg_TRANS ([4]; HepG2): 4.409; CHR_Rat_Liver_1_AnyLesion (Rat Liver [5]; rat, chronic study): 0; CHR_Rat_Liver_3_NeoplasticLesion (Rat Liver [7]; rat, chronic study): 0
5 | CCCN(CCC)c1c([N+](=O)[O-])cc(S(N)(=O)=O)cc1[N+](=O)[O-] [row 224] | – | – | – | 4.897 | 5.133 | – | – | 4.989 | – | – | – | 5.395 | CHR_Rat_Liver_2_PreneoplasticLesion (Rat Liver [1]; chronic rat study, liver): 0; CHR_Rat_Liver_1_AnyLesion (Rat Liver [5]; chronic rat study, liver): 0; CHR_Rat_Liver_3_NeoplasticLesion (Rat Liver [7]; chronic rat study, liver): 0; ATG_PXR_TRANS (PXR (NR1I2) [8]; HepG2): 5.538; ATG_PXRE_CIS (PXR (NR1I2) [9]; HepG2): 5.921
